Data set [1] can be described thus: Mouse plasma stability study (HPLC). It is filed as in vitro ADME. The following applies: stable = intensity of HPLC signal unchanged over 60 min of incubation. The protocol: Mouse Plasma Stability Studies (Table 5): HPLC conditions: The sample is injected and separated using an Inertsil ODS3 6u 3×150 mm column with a mobile phase of MeCN and water (50% for migrastatin) at a flow of 0.4 mL/min, monitored at 220 nm at 0.02 AUFS (the retention time for migrastatin is ca. 4 min, the identity of this peak was confirmed by mass spectral analysis). Incubation and sample preparation conditions: A solution (ca. 30 mM) of chemical compound (Table 5) in DMSO is prepared. 2 μL of the solution is added to a mixture containing 200 μL of mouse plasma and 800 μL of PBS. The resulting solution is put into a water bath at 37° C., and 100 μL of sample is withdrawn at 10, 20, 30, 45, and 60 min. The precipitate is removed by centrifugation and 20 μL of the supernatant is injected onto the HPLC.

The test system of data set [2] is 4T1 tumor cells. Kind of data set: Cell proliferation assay (MTT). Particulars: Mus musculus, 4T1, 48 h, read-out: IC50, 4T1 cell proliferation.
Procedure: Cell Proliferation Assay: 4×10^4 of 4T1 tumor cells in RPMI-1640 medium containing 10% FBS were seeded into wells of 96-multiwell plates (Becton-Dickinson) in the presence or absence of chemical compounds and then incubated at 37° C. for 48 h. An MTT kit (Cell Proliferation Kit I, Roche) (a colorimetric assay) was used to quantify cell proliferation and viability. The number of living cells, thus the total metabolic activity, directly correlates to the amount of purple formazan crystals formed (monitored by the absorbance).
Data set [3] deals with HUVEC. Kind of data set: Tube formation assay (preliminary, Table 1). The following applies: minimal concentration causing definite disturbance of tube network, 16-18 h, tested 200, 100, 50, 25, 10 μM. Format: cell-based, human. The protocol: 1. Tube Formation Assay (Table 1):
A protocol was designed based on the instructions from the provider (BD Bioscience, San Jose, Calif.). Briefly, wells of a 48 well culture dish were covert with 150 μL matrigel and the matrigel was gelatinized for 30 min at 37° C. A 80-90% confluent HUVEC (BD Bioscience, San Jose, Calif.) culture was trypsin treated, the detached cells were collected by centrifugation and resuspended in EGM-2 media (BD Bioscience, San Jose, Calif.). Cell concentration was adjusted to 100.000 cells/mL. 400 μL of the cell suspension were filled in the matrigel coated wells, and a solution of the inhibitor was added to the intended final concentration. The plates were incubated at 37° C. with 5% CO2 for 16-18 h. Media was removed, and the matrigel surface was washed twice with 500 μL PBS before cells were labeled with 250 μL 8 μM Calcein AM (Pierce, Rockford, Ill.) in PBS for 30 min at 37° C. After two additional washing steps (500 μL PBS) cells were visualized under an inverted microscope. Fluorescence was excited at 488 nm and recorded at 538 nm. The minimum effect concentration was defined as the minimal inhibitor concentration that caused a definite disturbance of the complexity of the formed tube network.

Data set [4] relates to 4T1 mouse breast tumor cells. Nature of the data set: Wound-healing assay with 4T1 cells (FIG. 6). It is filed as cell-based. The following applies: with serum; 200 μM; overnight. From the text:
In the wound healing assay, standard scratches (i.e., wounds) were made through a confluent 4T1 cell layer. In the absence of serum, cells would not migrate across the empty space created by application of the scratch. Upon addition of serum containing migration-enabling factors, migration of 4T1 cells across the scratch was induced. Exposure to these cells to inventive compounds allowed the evaluation of the cell migration inhibitory activity of these compounds.
Wound-Healing Assay (See FIG. 6). 4T1 mouse breast tumor cells in RPMI-1640 medium containing 10% fetal bovine serum (FBS) were seeded into wells of 24-multiwell plates (Becton-Dickinson). After cells grew to confluence, wounds were made with sterile pipette tips. Cells were washed with Phosphate Buffered Saline (PBS) and refreshed with growth medium containing different concentrations of chemical compounds. After overnight incubation at 37° C., cells were fixed and photographed.

Data set [5] relates to 4T1 mouse breast tumor cells. Nature of the data set: Boyden chamber cell migration assay with 4T1 tumor cells. Format: cell-based. The following applies: Mus musculus, read-out: IC50 (4T1 tumor cells). The method, then: The biological evaluation of the compounds (in terms of their ability to inhibit cell migration) was accomplished in a Boyden chamber cell migration assay. In this assay, mouse breast tumor cells (4T1 cells) or endothelial cells (HUVECs) are seeded on the upper chamber of a transwell insert. Growth factor-containing serum is added to the lower chamber.
Chamber Cell Migration Assay (Tables 4 and 6): Cell migrations were assayed with Boyden chambers [8.0 μm pore size, polyethylene terephthalate membrane, FALCON cell culture insert (Becton-Dickinson)]. 4T1 mouse breast tumor cells or HUVECs were trypsinized and counted. 300 μl of 5-10×10^4 cells in serum-free medium was added to the upper chamber and 500 μl of medium with 10% fetal bovine serum (FBS) was added to the lower chamber. […] Cells on the inside of the transwell inserts were removed with a cotton swab, and cells on the underside of the insert were fixed and stained. Photographs of three random regions were taken and the number of cells was counted to calculate the average number of cells that have transmigrated.

For data set [6], the system named is HUVECs (human umbilical vein endothelial cells). Nature of the data set: Boyden chamber cell migration assay with HUVECs. It is filed as cell-based. Particulars: Homo sapiens, HUVEC, read-out: IC50 (HUVEC). The method, then: Chamber Cell Migration Assay (Tables 4 and 6): Cell migrations were assayed with Boyden chambers [8.0 μm pore size, polyethylene terephthalate membrane, FALCON cell culture insert (Becton-Dickinson)]. 4T1 mouse breast tumor cells or HUVECs were trypsinized and counted. 300 μl of 5-10×10^4 cells in serum-free medium was added to the upper chamber and 500 μl of medium with 10% fetal bovine serum (FBS) was added to the lower chamber. The transwells were incubated for 6-8 h at 37° C. with different concentrations of chemical compound in both upper and lower chamber. Cells on the inside of the transwell inserts were removed with a cotton swab, and cells on the underside of the insert were fixed and stained. Photographs of three random regions were taken and the number of cells was counted to calculate the average number of cells that have transmigrated.

The subject of data set [7] is tumor cell migration. The following applies: literature value for natural migrastatin; read-out: IC50, wound healing assay (reported activity); cited from earlier work.
Data set [8] has as its system adherent cells (e.g. KYSE-520 cells). Kind of data set: Wound healing (scratch) assay (preliminary, Table 2). It is filed as cell-based. Particulars: 28 to 30 h, compared to 100 μM Migrastatin, tested 200, 100, 50, 25, 10 μM. The protocol: 2. Wound Healing Assay (Table 2)
The wound healing assay was performed based on the method described by Nakae et al. (Nakae et al., J. Antibiotics (2000), 53, 1130-1136). Briefly, adherent cells were grown in a suitable media to confluence (e.g. KYSE-520 cells in RPMI-1640 with 10% FBS). Cells were starved for 24 h in serum free media. A scratch (ca. 0.5 mm) was applied and the cell layer was washed twice with PBS after removal of the media. Fresh, serum free media with the test compound at the desired concentration was added and the cells were incubated for 28 to 30 h at 37° C., 5% CO2. The scratch size was compared to that observed for cells exposed to 100 μM Migrastatin. Test compounds associated with a scratch size equal to or larger than that observed for cells exposed to 100 μM Migrastatin were deemed to have cell migration inhibitory activity at least equal to Migrastatin.

The test system of data set [9] is cells. Kind of data set: Chamber cell migration assay, CyQuant readout (preliminary, Table 3). Format: cell-based. Particulars: 36 h, tested 200, 100, 50, 25, 10 μM. The method, then: 3. Chamber Cell Migration Assay (Table 3)
Cells were grown in an appropriate media to 70 to 80% confluence and incubated in serum and growth factor free media for 24 h. Cells were detached by typsin treatment, collected by centrifugation and resuspended in serum free media to a final concentration of 150,000 cells/mL. 400 μL of the cell suspension were loaded into a fibronectin coated insert for 24 well multidishes. 750 μL fully supplemented media were applied to the compartment under the insert. To both chambers the inhibitor was added at the intended concentration and the plates were incubated for 36 h at 37° C., 5% CO2. […] The resulting CyQuant assay solution was transferred to the cavities of a 96 well microtiter plate and the fluorescence signal was recorded in an appropriate reader. The CyQuant dye forms a highly fluorescent complex with DNA, thus the fluorescence signal is proportional to the number of cells that migrated throught he membrane in the presence of the test compound (N^inh). […] The positive control fluorescent reading correlates with the number of cells that migrate through the membrane in the absence of inhibitor (N^+). […] The negative control fluorescent reading correlates with the number of cells that migrate through the membrane through non-directed processes (N^−). The anti-migratory effect of a test compound is determined by the ratio (N^inh−N^−)/(N^+−N^−).

Each structure is given as a SMILES string.

Regarding `CO[C@H]1/C=C/CC/C=C/C(=O)O[C@H]([C@H](C)C(=O)CCCC2CC(=O)NC(=O)C2)/C(C)=C\[C@@H](C)[C@@H]1O` [migrastatin (1), Migrastatin], the results for the “stability (mouse plasma), in words” value in data set [1] and in data set [1] (listed as migrastatin) were “stable^1” and “completely inert toward lactone opening”, respectively. In addition, the IC50 in data set [2] is 42 µM; in data set [5], 29 µM; in data set [6], 65 µM; in [7] it was 29 µM; in [9], 200 µM. Further, the Minimum effect concentration in data set [3] and in data set [8] was 100 µM each time. Further, the “inhibition of 4T1 cell migration across the scratch, in words” value in [4] is listed as “not as great”.

(Values after patent publication US20070037783A1, “Migrastatin analogs and uses thereof” (priority 2003, published 2007).)
